Data as given in ChEMBL document CHEMBL3352739, “Comparative in vivo evaluation of polyalkoxy substituted 4H-chromenes and oxa-podophyllotoxins as microtubule destabilizing agents in the phenotypic sea urchin embryo assay” (2014).

How the values were obtained:
Paracentrotus lividus [1] = experiment: Antimitotic microtubule destabilizing activity in Paracentrotus lividus L embryos assessed as induction of embryo spinning
Paracentrotus lividus [2] = experiment: Antimitotic microtubule destabilizing activity in Paracentrotus lividus L embryos assessed as induction of cleavage arrest
Paracentrotus lividus [3] = experiment: Antimitotic microtubule destabilizing activity in Paracentrotus lividus L embryos assessed as induction of cleavage alteration
[4] = Cytotoxicity against human NCI60 cells; type: functional
[5] = Cytotoxicity against human NCI60 cells assessed as mean cell growth at 10 uM; type: functional

SMILES	EC (Paracentrotus lividus [1])	EC (Paracentrotus lividus [2])	EC (Paracentrotus lividus [3])	GI50 [4]	Activity [5]
COc1cc(C2C(C#N)=C(N)Oc3cc4c(cc32)OCO4)cc2c1OCO2 (stereo not given)	0.2 µM	0.05 µM	0.005 µM	389 nM	–
COc1cccc(C2C(C#N)=C(N)Oc3cc(O)ccc32)c1OC (stereo not given)	> 4 µM	> 4 µM	> 4 µM	–	–
N#CC1=C(N)Oc2cc(O)ccc2C1c1cc2c(c([N+](=O)[O-])c1)OCCO2 (stereo not given)	> 4 µM	> 4 µM	4 µM	99300 nM	–
COc1c(C2C(C#N)=C(N)Oc3cc(O)ccc32)cc2c(c1OC)OCO2 (stereo not given)	> 4 µM	> 4 µM	4 µM	–	–
COc1cccc(C2C(C#N)=C(N)Oc3cc(O)ccc32)c1 (stereo not given)	> 5 µM	2 µM	0.1 µM	–	–
COc1ccc(C2C(C#N)=C(N)Oc3cc(OC)ccc32)c(OC)c1 (stereo not given)	4 µM	1 µM	0.1 µM	–	–
COc1ccc(OC)c(C2C(C#N)=C(N)Oc3cc(O)ccc32)c1 (stereo not given)	> 4 µM	> 4 µM	1 µM	–	94.5%
COc1cccc([C@H]2C(C#N)=C(N)Oc3cc(OC)ccc32)c1	0.05 µM	0.01 µM	0.001 µM	–	–
COc1ccc2c(c1)OC(N)=C(C#N)C2c1cccc(OC)c1OC (stereo not given)	4 µM	2 µM	0.2 µM	–	–
CCOc1ccccc1C1C(C#N)=C(N)Oc2cc(OC)ccc21 (stereo not given)	0.5 µM	0.2 µM	0.02 µM	–	–
COc1ccc2c(c1)OC(N)=C(C#N)C2c1cc(OC)c2c(c1)OCO2 (stereo not given)	0.05 µM	0.02 µM	0.005 µM	–	–
COc1ccc2c(c1)OC(N)=C(C#N)C2c1cc(N)c2c(c1)OCCO2 (stereo not given)	5 µM	0.5 µM	0.1 µM	–	–
COc1ccc(C2C(C#N)=C(N)Oc3cc(O)ccc32)c(OC)c1OC (stereo not given)	> 4 µM	> 4 µM	> 4 µM	–	–
N#CC1=C(N)Oc2cc(O)ccc2C1c1ccccc1 (stereo not given)	> 5 µM	2 µM	0.5 µM	–	–
COc1cc([C@@H]2c3cc4c(cc3[C@H](O)[C@H]3COC(=O)[C@H]23)OCO4)cc(OC)c1OC [PODOFILOX]	0.5 µM	0.05 µM	0.02 µM	21 nM	–
COc1ccc2c(c1)OC(N)=C(C#N)[C@@H]2c1cc(OC)c(OC)c(OC)c1	0.2 µM	0.04 µM	0.005 µM	–	–
COc1cc(C2C(C#N)=C(N)Oc3cc(O)ccc32)cc2c1OCCO2 (stereo not given)	> 5 µM	4 µM	1 µM	–	–
